Measurements from patent publication EP0626016B1, “[…] […]” (BRITISH TECHNOLOGY GROUP LIMITED, priority 1992, dated 1993).
Read-outs that look alike come from different tables or passages of the source.

Target: T1, HRP Type VIA (Armoracia rusticana, UniProt P00433)
T1 sequence (P00433 31-338): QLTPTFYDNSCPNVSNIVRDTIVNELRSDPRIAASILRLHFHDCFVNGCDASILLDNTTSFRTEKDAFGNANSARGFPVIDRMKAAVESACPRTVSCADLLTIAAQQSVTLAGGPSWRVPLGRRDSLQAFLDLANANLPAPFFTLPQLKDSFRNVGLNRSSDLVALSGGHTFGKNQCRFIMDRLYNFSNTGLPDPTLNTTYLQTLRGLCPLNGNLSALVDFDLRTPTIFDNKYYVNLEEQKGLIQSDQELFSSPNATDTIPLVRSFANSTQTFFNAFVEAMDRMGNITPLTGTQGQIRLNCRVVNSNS
Conditions: for (d) Signal: Background: ratio (control = with no enhancer): control value in brackets not reported

Row | (a) Decrease in background (without HRP with test cpd.) (0.01 mg/ml, 10µl test compound) | (b) Increase in signal (with HRP, with test cpd.) (0.01 mg/ml, 10µl test compound) | (c) Increase in signal: background ratio (0.01 mg/ml, 10µl test compound) | (d) Signal: Background: ratio (control = with no enhancer) (0.01 mg/ml, 10µl test compound) | (a) Decrease in background (without HRP with test cpd.) (0.1 mg/ml, 10µl test compound) | (b) Increase in signal (with HRP, with test cpd.) (0.1 mg/ml, 10µl test compound) | (d) Signal: Background: ratio (control = with no enhancer) (0.1 mg/ml, 10µl test compound) | (a) Decrease in background (without HRP with test cpd.) (1 mg/ml, 10µl test compound) | (b) Increase in signal (with HRP, with test cpd.) (1 mg/ml, 10µl test compound) | (c) Increase in signal: background ratio (1 mg/ml, 10µl test compound) | (d) Signal: Background: ratio (control = with no enhancer) (1 mg/ml, 10µl test compound) | Molecule | (c) Increase in signal: background ratio (0.1 mg/ml, 10µl test compound) | (a) Decrease in background (without HRP with test cpd.) | (b) Increase in signal (with HRP, with test cpd.) | (c) Increase in signal: background ratio
1 | Y | N | N (N = no) | 2.2 (2.0) | Y | N | – | Y | N | N (N = no) | – | OB(O)c1c(Cl)cc(Cl)cc1Cl [Compound 1020, 2,4,6-trichlorophenylboronic acid] | N (N = no) | – | – | –
2 | Y | N | N (N = no) | 2.1 (2.0) | Y | N | – | Y | N | N (N = no) | – | OB(O)c1ccc(B(O)O)cc1 [Compound 1035, 1,4-phenyldiboronic acid] | N (N = no) | – | – | –
3 | Y | N | N (N = no) | 2.1 (2.0) | Y | N | 3.3 (2.9) | Y | N | N (N = no) | – | O=C(CCl)Nc1cccc(B(O)O)c1 [Compound 1031, 3-chloroacetylaminophenylboronic acid] | N (N = no) | – | – | –
4 | Y | N | N (N = no) | – | Y | N | 3.4 (2.9) | Y | N | N (N = no) | – | CCC(C)CNc1cccc(B(O)O)c1 (stereo not drawn) [Compound 1032, 3-(2'-methylbutylamino)phenylboronic acid] | N (N = no) | – | – | –

More lines, now with the values behind:

Row | Molecule | (a) Decrease in background (without HRP with test cpd.) (0.01 mg/ml, 10µl test compound) | (b) Increase in signal (with HRP, with test cpd.) (0.01 mg/ml, 10µl test compound) | (c) Increase in signal: background ratio (0.01 mg/ml, 10µl test compound) | (d) Signal: Background: ratio (control = with no enhancer) (0.01 mg/ml, 10µl test compound) | (a) Decrease in background (without HRP with test cpd.) (0.1 mg/ml, 10µl test compound) | (b) Increase in signal (with HRP, with test cpd.) (0.1 mg/ml, 10µl test compound) | (d) Signal: Background: ratio (control = with no enhancer) (0.1 mg/ml, 10µl test compound) | (a) Decrease in background (without HRP with test cpd.) (1 mg/ml, 10µl test compound) | (b) Increase in signal (with HRP, with test cpd.) (1 mg/ml, 10µl test compound) | (c) Increase in signal: background ratio (1 mg/ml, 10µl test compound) | (d) Signal: Background: ratio (control = with no enhancer) (1 mg/ml, 10µl test compound) | (c) Increase in signal: background ratio (0.1 mg/ml, 10µl test compound) | (a) Decrease in background (without HRP with test cpd.) | (b) Increase in signal (with HRP, with test cpd.) | (c) Increase in signal: background ratio
5 | dimethylphenylboronic acid [Compound 1036] | Y | N | Y (Column (c) shows whether there was an increase in the signal:background ratio by over 25% of the control value (Y = yes) | 2.6 (2.0) | Y | N | 7.6 (2.9) | Y | N | N (N = no) | – | Y (Column (c) shows whether there was an increase in the signal:background ratio by over 25% of the control value (Y = yes) | – | – | –
6 | C[Si](C)(C)c1ccc(B(O)O)cc1 [Compound 1001, 4-(trimethylsilyl) benzeneboronic acid] | – | – | – | – | – | – | – | – | – | – | – | – | Y | N and Y | Y (key: Column (c) shows whether there was an increase in the signal:background ratio by over 25% of the control value (Y = yes; N = no)
7 | OB(O)c1ccc(Cl)c(Cl)c1 [Compound 1024, 3,4-dichlorophenylboronic acid] | Y | N | N (N = no) | – | Y | Y | 5.4 (2.8) | Y | N | Y (Column (c) shows whether there was an increase in the signal:background ratio by over 25% of the control value (Y = yes) | 7.6 (4.5) | Y (Column (c) shows whether there was an increase in the signal:background ratio by over 25% of the control value (Y = yes) | – | – | –
8 | OB(O)c1cccc2ccccc12 [Compound 1002, 1-naphthaleneboronic acid] | Y | N | N (N = no) | 2.5 | Y | N | 3.4 | Y | N | N (N = no) | 0.7 (2.3) | Y (Column (c) shows whether there was an increase in the signal:background ratio by over 25% of the control value (Y = yes) | – | – | –
9 | c1ccc([B-](c2ccccc2)(c2ccccc2)c2ccccc2)cc1 [Compound 1016, tetraphenylboron sodium] | – | – | – | – | – | – | – | – | – | – | – | – | Y | N | N (key: column (a) shows whether the test compound lowered the light output from the luminol-hydrogen peroxide solution (Y = yes; N = no)
10 | OB(O)c1ccc(Oc2ccccc2)cc1 [Compound 1010, 4-(phenoxy)benzeneboronic acid] | Y | N | N (N = no) | 3.0 | Y | N | 4.6 | Y | N | Y (Column (c) shows whether there was an increase in the signal:background ratio by over 25% of the control value (Y = yes) | 5.0 (2.5) | Y (Column (c) shows whether there was an increase in the signal:background ratio by over 25% of the control value (Y = yes) | – | – | –
11 | O=C(O)c1ccc(B(O)O)cc1[N+](=O)[O-] [Compound 1045, 4-carboxy-3-nitrophenylboronic acid] | Y | N | N (N = no) | 2.2 (2.0) | Y | Y | 18.1 (2.8) | Y | N | Y (Column (c) shows whether there was an increase in the signal:background ratio by over 25% of the control value (Y = yes) | 68.5 (4.5) | Y (Column (c) shows whether there was an increase in the signal:background ratio by over 25% of the control value (Y = yes) | – | – | –
12 | c1ccc(B2OCCCO2)cc1 [Compound 1012, 2-phenyl-1,3,2-dioxaborinane] | N | Y | N (N = no) | 2.2 | N | N | 2.2 | Y | N | Y (Column (c) shows whether there was an increase in the signal:background ratio by over 25% of the control value (Y = yes) | 17.1 (2.5) | N (N = no) | – | – | –
13 | CCCCOB(OCCCC)c1ccc(-c2ccc(Br)cc2)cc1 [Compound 1038, 4-(4'-bromophenyl)phenyl-di-n-butoxyborane] | Y Y | Y Y | Y Y (Column (c) shows whether there was an increase in the signal:background ratio by over 25% of the control value (Y = yes) | 442.2 | Y Y | Y Y | 2118.5 | Y | Y | Y (Column (c) shows whether there was an increase in the signal:background ratio by over 25% of the control value (Y = yes) | 903.8 (4.5) | Y Y (Column (c) shows whether there was an increase in the signal:background ratio by over 25% of the control value (Y = yes) | – | – | –
